Source: patent US5756327A, “Recombinant mycobacterial isoleucyl-tRNA synthetase genes, tester strains and assays” (priority 1995, dated 1998)

Columns and labels:
[1] = tested on: DH5α cells expressing wild-type IleRS on a plasmid (pKS21); test: Pseudomonic acid (PMA) rescue, growth in liquid culture (A600); assay type: cell-based, E. coli; details: LB plus ampicillin media containing 40 μg/ml PMA; 30° C., 36-40 hours
[2] = tested on: E. coli IleRS; details: Hughes and Mellows, Biochem. J. 176:305-318 (1978); cited from earlier work
[3] = tested on: E. coli DH5α cells expressing the M. tuberculosis IleRS gene (on pKS-56); assay type: cell-based
[4] = tested on: E. coli cells with the TB GST-IleRS fusion construct, pGX-56; assay type: cell-based; details: as for pKS-56: 40 μg/ml PMA, LB plus ampicillin

C/C(=C\C(=O)OCCCCCCCCC(=O)O)C[C@@H]1OC[C@H](C[C@@H]2O[C@H]2[C@@H](C)[C@H](C)O)[C@@H](O)[C@H]1O [PMA, pseudomonic acid A]
inhibition of growth [1]: completely inhibited | sensitivity of E. coli IleRS to PMA [2]: extremely sensitive | inhibition of growth ([3]; LB plus ampicillin media containing 40 μg/ml PMA, 30° C., 36-40 hours): no inhibition of growth | growth at highest concentration tested ([3]; LB plus ampicillin with 640 μg/ml PMA (higher concentrations were not tested)): continued to grow | inhibition of growth [4]: Identical results
